Results taken from US8809342B2, “Glucagon receptor modulators” (Pfizer Inc., priority 2010, dated 2014).

Target: T1, human glucagon receptor (Homo sapiens, UniProt P47871)
T1 construct: expressed in transfected cells; host or cells: CHO-K1 cells, stably transfected
Test: Glucagon cAMP assay (Cisbio cAMP detection)
Assay type: cell-based
Experimental: The Cisbio cAMP detection assay is used to determine the ability of punitive glucagon antagonist to block glucagon induced cAMP production. Potential glucagon antagonists are re-suspended and diluted in 100% DMSO. Prior to use in the Glucagon cAMP assay 100×DMSO compound stocks are diluted 20× with DMEM-F12 media (Invitrogen) containing either 0.1% or 4% BSA. 2 uls of 5× compound stocks are spotted into the appropriate wells of low binding white solid bottom 384 well plates (Corning). 2 uls of 5% DMSO or known glucagon antagonist are added to each plate to define the assay window. CHOK1 cells stably transfected with the human glucagon receptor are removed from culture flasks with cell dissociation buffer. Cell pellets are re-suspended, at a concentration of 8.3e^5 cells/ml in DMEM-F12 with or without 4% BSA and 200 uM IBMX. 6 uls of cell suspensions are added to the assay plates. Plates are incubated for 20 min at room temperature prior to the addition of a 100 pM challenge dose of glucagon. On a separate plate glucagon dose response curves are run to determine the EC50 of glucagon. After a 30 min room temperature incubation the reaction is terminated by the addition of lysis buffer containing the cAMP detection reagents. Plates are incubated for an additional 60 min at room temperature prior to being read on the Perkin Elmer fluorescent plate reader. Raw is converted to nM of cAMP produced based on a cAMP standard curve. Converted data is then analyzed using the Pfizer data analysis program. IC50 values are determined from the generated sigmoidal dose response curves. Kb values are the calculated using a modified Cheng-Prusoff equation.

T1 sequence (P47871 26-477): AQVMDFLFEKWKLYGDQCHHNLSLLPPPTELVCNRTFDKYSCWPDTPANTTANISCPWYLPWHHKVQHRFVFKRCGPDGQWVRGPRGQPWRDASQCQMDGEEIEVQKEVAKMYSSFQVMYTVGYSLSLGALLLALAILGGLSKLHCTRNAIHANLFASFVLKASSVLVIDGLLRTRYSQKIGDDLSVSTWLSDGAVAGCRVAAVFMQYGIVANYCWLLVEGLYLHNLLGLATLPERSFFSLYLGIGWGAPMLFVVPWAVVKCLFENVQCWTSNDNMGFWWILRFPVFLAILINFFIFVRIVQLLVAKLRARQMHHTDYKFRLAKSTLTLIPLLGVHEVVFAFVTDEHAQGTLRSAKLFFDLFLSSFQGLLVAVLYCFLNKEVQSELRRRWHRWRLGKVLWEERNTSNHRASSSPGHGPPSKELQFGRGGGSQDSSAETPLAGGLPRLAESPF

| Compound | Kb |
| --- | --- |
| CCCC(Nc1ccc(C(=O)NCCC(=O)O)cn1)c1ccc(-c2ccc(C(F)(F)F)cc2)cc1 (racemic) [Example 1.7, (+/−)-3-(6-(1-(4′-(trifluoromethyl)biphenyl-4-yl)butylamino)nicotinamido)propanoic acid] | 170 nM |
| CC(C)CC(Nc1ccc(C(=O)Nc2nn[nH]n2)cn1)c1ccc(-c2ccc(C(F)(F)F)cc2)cc1 (racemic) [Example 1.20] | 1000 nM |
| CC(C)CC(Nc1ccc(C(=O)NCc2nn[nH]n2)cn1)c1ccc(-c2ccc(C(F)(F)F)cc2)cc1 (racemic) [Example 1.21, (+/−)-N-((2H-tetrazol-5-yl)methyl)-6-(3-methyl-1-(4′-(trifluoromethyl)biphenyl-4-yl)butylamino)nicotinamide] | 520 nM |
| CC(C)CC(Nc1ccc(C(=O)NCCS(=O)(=O)O)cn1)c1ccc(-c2ccc(C(F)(F)F)cc2)cc1 (racemic) [Example 1.22, (+/−)-2-(6-(3-methyl-1-(4′-(trifluoromethyl)biphenyl-4-yl)butylamino)nicotinamido) ethanesulfonic acid] | 6700 nM |
| CC(C)CC(Nc1ccc(C(=O)NC[C@@H](O)C(=O)O)cn1)c1ccc(-c2ccc(C(F)(F)F)cc2)cc1 (mixture of isomers) [Example 1.24, (+/−)-(2R)-2-hydroxy-3-(6-(3-methyl-1-(4′-(trifluoromethyl)biphenyl-4-yl)butylamino)nicotinamido)propanoic acid] | 1600 nM |
| Cc1cc(C(CC(C)C)Nc2ccc(C(=O)NCCC(=O)O)cn2)cc(C)c1-c1ccc(C(F)(F)F)cc1 (racemic) [Example 1.28, (+/−)-3-(6-(1-(2,6-dimethyl-4′-(trifluoromethyl)biphenyl-4-yl)-3-methylbutylamino)nicotinamido)propanoic acid] | 83 nM |
| O=C(O)CCNC(=O)c1ccc(NC(c2ccc(-c3ccc(C(F)(F)F)cc3)cc2)C2CCC2)nc1 (racemic) [Example 1.32, (+/−)-3-(6-(cyclobutyl(4′-(trifluoromethyl)biphenyl-4-yl)methylamino)nicotinamido)propanoic acid] | 610 nM |
| CC(C)(C)CC(Nc1ccc(C(=O)NCCC(=O)O)cn1)c1ccc(-c2ccc(C(F)(F)F)cc2)cc1 (racemic) [Example 1.33, (+/−)-3-(6-(3,3-dimethyl-1-(4′-(trifluoromethyl)biphenyl-4-yl)butylamino)nicotinamido)propanoic acid] | 120 nM |
| O=C(O)CCNC(=O)c1ccc(NC(c2ccc(-c3ccc(C(F)(F)F)cc3)cc2)C2CC2)nc1 (racemic) [Example 1.34, (+/−)-3-(6-(cyclopropyl(4′-(trifluoromethyl)biphenyl-4-yl)methylamino)nicotinamido)propanoic acid] | 550 nM |
| O=C(O)CCNC(=O)c1ccc(NC(c2ccc(-c3ccc(C(F)(F)F)cc3)cc2)C2CCCC2)nc1 (racemic) [Example 1.35, (+/−)-3-(6-(cyclopentyl(4′-(trifluoromethyl)biphenyl-4-yl)methylamino)nicotinamido)propanoic acid] | 50 nM |
| Cc1ccc(-c2ccc(C(CC(C)C)Nc3ccc(C(=O)NCCC(=O)O)cn3)cc2)cn1 (racemic) [Example 1.36, (+/−)-3-(6-(3-methyl-1-(4-(6-methylpyridin-3-yl)phenyl)butylamino)nicotinamido)propanoic acid] | 870 nM |
| CC(C)CC(Nc1ccc(C(=O)NCCC(=O)O)cn1)c1ccc(-c2ccccc2)cc1 (racemic) [Example 1.37] | 220 nM |
| CC(C)CC(Nc1ccc(C(=O)NCCC(=O)O)cn1)c1ccc(-c2ccccc2F)cc1 (racemic) [Example 1.38, (+/−)-3-(6-(1-(2′-fluorobiphenyl-4-yl)-3-methylbutylamino)nicotinamido)propanoic acid] | 600 nM |
| CC(C)CC(Nc1ccc(C(=O)NCCC(=O)O)cn1)c1ccc(-c2cccc(Cl)c2)cc1 (racemic) [Example 1.39, (+/−)-3-(6-(1-(3′-chlorobiphenyl-4-yl)-3-methylbutylamino)nicotinamido)propanoic acid] | 110 nM |
| CC(C)CC(Nc1ccc(C(=O)NCCC(=O)O)cn1)c1ccc(-c2cccnc2)cc1 (racemic) [Example 1.40, (+/−)-3-(6-(3-methyl-1-(4-(pyridin-3-yl)phenyl)butylamino)nicotinamido)propanoic acid] | 4600 nM |
| CC(C)CC(Nc1ccc(C(=O)NCCC(=O)O)cn1)c1ccc(-c2cccc(F)c2)cc1 (racemic) [Example 1.41, (+/−)-3-(6-(1-(3′-fluorobiphenyl-4-yl)-3-methylbutylamino)nicotinamido)propanoic acid] | 450 nM |
| Cc1ccccc1-c1ccc(C(CC(C)C)Nc2ccc(C(=O)NCCC(=O)O)cn2)cc1 (racemic) [Example 1.42, (+/−)-3-(6-(3-methyl-1-(2′-methylbiphenyl-4-yl)butylamino)nicotinamido)propanoic acid] | 780 nM |
| COc1ccccc1-c1ccc(C(CC(C)C)Nc2ccc(C(=O)NCCC(=O)O)cn2)cc1 (racemic) [Example 1.43, (+/−)-3-(6-(1-(2′-methoxybiphenyl-4-yl)-3-methylbutylamino)nicotinamido)propanoic acid] | 190 nM |

Results, then the molecule that gave them:

| Kb | Compound |
| --- | --- |
| 140 nM | CC(C)CC(Nc1ccc(C(=O)NCCC(=O)O)cn1)c1ccc(-c2ccc(C(F)(F)F)cc2)cc1 (racemic) [Example 1.2, (+/−)-3-(6-(3-methyl-1-(4′-(trifluoromethyl)biphenyl-4-yl)butylamino)nicotinamido)propanoic acid] |
| 560 nM | CC(C)CC(Nc1ncc(C(=O)NCCC(=O)O)cn1)c1ccc(-c2ccc(C(F)(F)F)cc2)cc1 (racemic) [Example 1.4, (+/−)-3-(2-(3-methyl-1-(4′-(trifluoromethyl)biphenyl-4-yl)butylamino)pyrimidine-5-carboxamido)propanoic acid] |
| 180 nM | CC(C)C(Nc1ccc(C(=O)NCCC(=O)O)cn1)c1ccc(-c2ccc(C(F)(F)F)cc2)cc1 (racemic) [Example 1.10, (+/−)-3-(6-(2-methyl-1-(4′-(trifluoromethyl)biphenyl-4-yl)propylamino)nicotinamido)propanoic acid] |
| 280 nM | CCC(Nc1ccc(C(=O)NCCC(=O)O)cn1)c1ccc(-c2ccc(C(F)(F)F)cc2)cc1 (racemic) [Example 1.11] |
| 150 nM | CC(C)CC(Nc1cnc(C(=O)NCCC(=O)O)cn1)c1ccc(-c2ccc(C(F)(F)F)cc2)cc1 (racemic) [Example 1.16, (+/−)-3-(5-(3-methyl-1-(4′-(trifluoromethyl)biphenyl-4-yl)butylamino)pyrazine-2-carboxamido)propanoic acid] |
| 890 nM | CC(C)CC(Nc1ncc(C(=O)Nc2nnn[nH]2)cn1)c1ccc(-c2ccc(C(F)(F)F)cc2)cc1 (racemic) [Example 1.19, (+/−)-2-(3-methyl-1-(4′-(trifluoromethyl)biphenyl-4-yl)butylamino)-N-(1H-tetrazol-5-yl)pyrimidine-5-carboxamide] |
| 300 nM | CC(C)CC(Nc1ccc(C(=O)N(C)CCC(=O)O)cn1)c1ccc(-c2ccc(C(F)(F)F)cc2)cc1 (racemic) [Example 1.23, (+/−)-3-(N-methyl-6-(3-methyl-1-(4′-(trifluoromethyl)biphenyl-4-yl)butylamino)nicotinamido)propanoic acid] |
| 95 nM | Cc1cc(C(CC(C)C)Nc2ccc(C(=O)NCCC(=O)O)cn2)ccc1-c1ccc(C(F)(F)F)cc1 (racemic) [Example 1.25, (+/−)-3-(6-(3-methyl-1-(2-methyl-4′-(trifluoromethyl)biphenyl-4-yl)butylamino)nicotinamido)propanoic acid] |
| 390 nM | Cc1cc(C(CC(C)C)Nc2ncc(C(=O)NCCC(=O)O)cn2)ccc1-c1ccc(C(F)(F)F)cc1 (racemic) [Example 1.26, (+/−)-3-(2-(3-methyl-1-(2-methyl-4′-(trifluoromethyl)biphenyl-4-yl)butylamino)pyrimidine-5-carboxamido)propanoic acid] |
| 260 nM | Cc1cc(C(CC(C)C)Nc2ncc(C(=O)NCCC(=O)O)cn2)cc(C)c1-c1ccc(C(F)(F)F)cc1 (racemic) [Example 1.27, (+/−)-3-(2-(1-(2,6-dimethyl-4′-(trifluoromethyl)biphenyl-4-yl)-3-methylbutylamino)pyrimidine-5-carboxamido)propanoic acid] |
| 160 nM | CC(C)CC(Nc1ccc(C(=O)NCCC(=O)O)cn1)c1ccc(-c2ccc(C(F)(F)F)cc2)nc1 (racemic) [Example 1.29, (+/−)-3-(6-(3-methyl-1-(6-(4-(trifluoromethyl)phenyl)pyridin-3-yl)butylamino)nicotinamido)propanoic acid] |
| 540 nM | CCCC(Nc1cnc(C(=O)NCCC(=O)O)cn1)c1ccc(-c2ccc(C(F)(F)F)cc2)cc1 (racemic) [Example 1.30, (+/−)-3-(5-(1-(4′-(trifluoromethyl)biphenyl-4-yl)butylamino)pyrazine-2-carboxamido)propanoic acid] |
| 540 nM | CCC(Nc1cnc(C(=O)NCCC(=O)O)cn1)c1ccc(-c2ccc(C(F)(F)F)cc2)cc1 (racemic) [Example 1.31, (+/−)-3-(5-(1-(4′-(trifluoromethyl)biphenyl-4-yl)propylamino)pyrazine-2-carboxamido)propanoic acid] |
